For one assay, the system named is Rhizoctonia solani (Rs). In words: Growth inhibition assay of fungal pathogens, Rs. The class given is cell-based. To be noted: 48 h. The procedure:
Compounds of the present invention were evaluated in a growth inhibition assay to determine the ability to control the growth of fungal pathogens, such as Botrtyis cinerea (Bc), Collectotrichum graminicola (Cg), Diplodia maydis (Dm), Fusarium moniliforme (Fm), Fusarium virguliforme (Fv), Phytophthora capsici (Pc), Rhizoctonia solani (Rs), and Septoria tritici (St).
Compounds to be tested were dissolved in DMSO at 2.5 mg/ml to produce compound stock solutions (“stocks”). Stocks were diluted with DMSO by a five-fold dilution in a 96-well stock plate, and two sets of final concentrations of 50, 10, and 2 ppm or 2, 0.4, and 0.08 ppm were obtained in vitro. A set of positive controls was also prepared, with various concentrations of Soraphen (2, 0.4, and 0.08 ppm), Metalaxyl (1.1, 0.22, and 0.04 ppm), and Metconazole (2, 0.4, and 0.08 ppm or 0.2, 0.04, and 0.008 ppm) after the five-fold dilutions. Negative controls on each plate included 2% DMSO, water, and a blank (media+2% DMSO).
Fungal spores were isolated from previously sub-cultured plates of Botrtyis cinerea (Bc), Collectotrichum graminicola (Cg), Diplodia maydis (Dm), Fusarium moniliforme (Fm), Fusarium virguliforme (Fv), Phytophthora capsici (Pc), and Septoria tritici (St). The isolated spores were diluted to individual concentrations with a 17% V8 liquid media. For Rhizoctonia solani (Rs) and Pythium irregulare, 1.5 mm mycelial plugs were used in place of spores and/4 Potato Dextrose Broth (PDB) was used for dilution. The spore concentrations and plug sizes were based on growth curves generated at 48 hours for each pathogen.
In a second 96-well plate, the spores or mycelial plugs, media, diluted compound solutions, and controls were combined. Once the compound was added, a true final concentration of compound in each well was measured by an OD600 reading, which adjusted for any compound precipitation that might have occurred in the well. Plate readings were repeated at both 24 and 48 hours. The blank negative control was used as a background subtraction. Additional visual ratings were performed at both 24 and 48 hours for checking on precipitation and confirming efficacy. Visual and OD600 ratings of the compounds at 48 hours were compared to the 2% DMSO negative control, and the percent of pathogen growth inhibition was determined based on those values.

Another assay deals with human (hACC2) (Homo sapiens, UniProt O00763). In words: In vitro ACC inhibition assay (ADP-Glo), hACC2. The class given is biochemical. To be noted: 5 nM ACC2, 20 μM ATP, 20 μM acetyl-CoA. As to the method:
The detailed procedure is as follows. […] 10 μL ADP glo reagent was added. […] 20 μL kinase detection reagent was added.
In general terms: ADP-Glo first removes unused ATP, then detects ADP through luciferase.

The mark [1] stands for this setting: read-out: Concentration at 90% Inhibition Rs, Rhizoctonia solani, mycelial plugs, growth inhibition at 48 hours vs 2% DMSO control.
The mark [2] stands for this setting: read-out: Concentration at 90% Inhibition Rs, Rhizoctonia solani, mycelial plugs, growth inhibition vs 2% DMSO control at 48 hours.
Where [3] appears, read: mycelial plugs, growth inhibition at 48 hours vs 2% DMSO control, read-out: Concentration at 90% Inhibition Rs.
The mark [4] stands for this setting: mycelial plugs, growth inhibition vs 2% DMSO control at 48 hours, read-out: Concentration at 90% Inhibition Rs.

Converted amounts (≈) assume the structure as drawn. Like-named read-outs stand apart in the source and are kept apart here.

Chain of human (hACC2) (O00763 whole entry): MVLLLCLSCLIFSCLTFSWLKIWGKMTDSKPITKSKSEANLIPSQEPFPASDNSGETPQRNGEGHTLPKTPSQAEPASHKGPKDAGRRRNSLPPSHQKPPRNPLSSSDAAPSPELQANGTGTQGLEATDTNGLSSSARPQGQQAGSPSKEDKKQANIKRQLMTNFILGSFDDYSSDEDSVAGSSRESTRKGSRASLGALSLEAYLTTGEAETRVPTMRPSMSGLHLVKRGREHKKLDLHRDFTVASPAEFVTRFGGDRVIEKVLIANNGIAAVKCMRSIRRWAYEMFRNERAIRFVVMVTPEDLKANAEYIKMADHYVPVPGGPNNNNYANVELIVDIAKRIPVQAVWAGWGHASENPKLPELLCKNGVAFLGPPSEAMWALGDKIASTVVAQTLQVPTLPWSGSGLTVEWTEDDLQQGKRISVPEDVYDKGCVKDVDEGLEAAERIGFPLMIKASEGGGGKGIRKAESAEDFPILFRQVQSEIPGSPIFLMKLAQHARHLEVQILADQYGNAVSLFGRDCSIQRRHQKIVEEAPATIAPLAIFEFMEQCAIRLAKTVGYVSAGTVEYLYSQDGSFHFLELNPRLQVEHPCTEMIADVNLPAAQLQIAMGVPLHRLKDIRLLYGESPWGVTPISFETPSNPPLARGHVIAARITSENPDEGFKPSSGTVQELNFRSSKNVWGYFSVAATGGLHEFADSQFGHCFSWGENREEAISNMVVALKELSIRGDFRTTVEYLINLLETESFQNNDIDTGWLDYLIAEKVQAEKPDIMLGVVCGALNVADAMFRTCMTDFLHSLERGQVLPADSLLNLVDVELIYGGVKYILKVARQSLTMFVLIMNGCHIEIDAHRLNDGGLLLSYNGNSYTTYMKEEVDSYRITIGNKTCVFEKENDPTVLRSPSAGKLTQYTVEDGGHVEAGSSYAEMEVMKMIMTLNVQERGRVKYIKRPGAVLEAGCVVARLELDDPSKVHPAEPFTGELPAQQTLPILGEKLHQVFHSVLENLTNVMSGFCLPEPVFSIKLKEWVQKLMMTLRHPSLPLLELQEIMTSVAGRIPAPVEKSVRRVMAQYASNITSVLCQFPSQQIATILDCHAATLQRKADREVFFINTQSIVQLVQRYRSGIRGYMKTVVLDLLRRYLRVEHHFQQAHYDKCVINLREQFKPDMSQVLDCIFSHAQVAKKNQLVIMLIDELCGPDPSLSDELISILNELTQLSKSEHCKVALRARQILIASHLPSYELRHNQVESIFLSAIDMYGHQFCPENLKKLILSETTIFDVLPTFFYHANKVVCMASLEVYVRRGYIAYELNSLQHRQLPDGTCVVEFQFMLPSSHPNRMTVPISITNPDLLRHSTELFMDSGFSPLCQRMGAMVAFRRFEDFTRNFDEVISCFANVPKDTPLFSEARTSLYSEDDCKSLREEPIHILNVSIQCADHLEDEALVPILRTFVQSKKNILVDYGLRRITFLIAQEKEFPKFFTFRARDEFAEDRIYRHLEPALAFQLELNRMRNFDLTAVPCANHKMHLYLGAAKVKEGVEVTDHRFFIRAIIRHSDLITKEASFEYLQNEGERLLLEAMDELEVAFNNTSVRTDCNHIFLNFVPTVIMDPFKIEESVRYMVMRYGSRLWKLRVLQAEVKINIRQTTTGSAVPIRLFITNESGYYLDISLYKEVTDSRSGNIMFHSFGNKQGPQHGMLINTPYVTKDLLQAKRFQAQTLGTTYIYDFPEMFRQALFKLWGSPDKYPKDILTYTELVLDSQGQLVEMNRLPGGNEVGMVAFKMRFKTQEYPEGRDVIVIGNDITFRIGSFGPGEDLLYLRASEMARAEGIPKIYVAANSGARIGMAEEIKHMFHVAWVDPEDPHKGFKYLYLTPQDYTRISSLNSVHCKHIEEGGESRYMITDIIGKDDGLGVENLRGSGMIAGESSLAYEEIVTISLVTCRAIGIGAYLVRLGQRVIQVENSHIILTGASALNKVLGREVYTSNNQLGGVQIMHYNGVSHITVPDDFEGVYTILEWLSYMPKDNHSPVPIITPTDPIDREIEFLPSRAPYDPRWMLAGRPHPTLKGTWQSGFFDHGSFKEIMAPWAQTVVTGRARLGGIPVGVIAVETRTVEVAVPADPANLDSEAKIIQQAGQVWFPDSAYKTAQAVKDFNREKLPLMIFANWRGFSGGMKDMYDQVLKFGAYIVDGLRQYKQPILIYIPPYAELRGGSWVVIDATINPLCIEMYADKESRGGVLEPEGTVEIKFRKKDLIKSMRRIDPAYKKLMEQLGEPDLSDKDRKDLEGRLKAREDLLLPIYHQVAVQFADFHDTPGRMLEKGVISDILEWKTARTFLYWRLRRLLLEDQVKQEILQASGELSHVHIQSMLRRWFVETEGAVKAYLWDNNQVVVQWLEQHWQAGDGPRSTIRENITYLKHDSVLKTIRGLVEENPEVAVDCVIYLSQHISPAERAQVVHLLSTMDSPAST

For the compound `COc1ccc(F)cc1[C@H](Cn1c(=O)n(C(C)(C)C(=O)NC(C)C)c(=O)c2c(C)c(-n3nccn3)sc21)OCC(C)C` [Compound I-10, (R)-2-(1-(2-(5-fluoro-2-methoxyphenyl)-2-isobutoxyethyl)-5-methyl-2,4-dioxo-6-(2H-1,2,3-triazol-2-yl)-1,4-dihydrothieno[2,3-d]pyrimidin-3(2H)-yl)-N-isopropyl-2-methylpropanamide], the IC90 in the assay with Rhizoctonia solani (Rs) (setting [1]) and with Rhizoctonia solani (Rs) (setting [2]) was 0.4 µg/mL (≈ 0.666 µM) each time. The half-inhibitory concentration (IC50) – broadly, the concentration needed to halve the response being measured – was in the range of 10 to 40 nM against human (hACC2) (Table 2a) and 10 to 40 nM at human (hACC2) (Table 2b, additional results).

Take `COc1ccccc1[C@H](Cn1c(=O)n(C(C)(C)C(=O)NCC(C)C)c(=O)c2c(C)c(-n3nccn3)sc21)OC1CCOCC1` [Compound I-13, (R)—N-isobutyl-2-(1-(2-(2-methoxyphenyl)-2-((tetrahydro-2H-pyran-4-yl)oxy)ethyl)-5-methyl-2,4-dioxo-6-(2H-1,2,3-triazol-2-yl)-1,4-dihydrothieno[2,3-d]pyrimidin-3(2H)-yl)-2-methylpropanamide]: the IC90 with Rhizoctonia solani (Rs) (setting [3]) and in the assay with Rhizoctonia solani (Rs) (setting [4]) was 0.08 µg/mL (≈ 0.128 µM) throughout. The IC50 against human (hACC2) (Table 2a) lay within 5 to 10 nM; on human (hACC2) (Table 2b, additional results) it was 5 to 10 nM.

For the compound `COc1ccccc1[C@H](Cn1c(=O)n(C(C)(C)C(=O)NC(C)C)c(=O)c2c(C)c(-n3nccn3)sc21)OC1CCOCC1` [Compound I-16, (R)—N-isopropyl-2-(1-(2-(2-methoxyphenyl)-2-((tetrahydro-2H-pyran-4-yl)oxy)ethyl)-5-methyl-2,4-dioxo-6-(2H-1,2,3-triazol-2-yl)-1,4-dihydrothieno[2,3-d]pyrimidin-3(2H)-yl)-2-methylpropanamide], the IC90 in the assay with Rhizoctonia solani (Rs) (setting [1]) and in the assay with Rhizoctonia solani (Rs) (setting [2]) was 0.4 µg/mL (≈ 0.655 µM) in each case. In addition, the IC50 was in the range of 5 to 10 nM against human (hACC2) (Table 2a) and 5 to 10 nM at human (hACC2) (Table 2b, additional results).

Consider `COc1ccccc1[C@H](Cn1c(=O)n(C(C)(C)C(=O)N2CCCCC2)c(=O)c2c(C)c(-n3nccn3)sc21)OC1CCOCC1` [Compound I-17, (R)-1-(2-(2-methoxyphenyl)-2-((tetrahydro-2H-pyran-4-yl)oxy)ethyl)-5-methyl-3-(2-methyl-1-oxo-1-(piperidin-1-yl)propan-2-yl)-6-(2H-1,2,3-triazol-2-yl)thieno[2,3-d]pyrimidine-2,4(1H,3H)-dione], for which the IC90 with Rhizoctonia solani (Rs) (setting [1]) and with Rhizoctonia solani (Rs) (setting [2]) was 0.08 µg/mL (≈ 0.126 µM) throughout. Besides, the IC50 lay in the range of 5 to 10 nM at human (hACC2) (Table 2a) and 5 to 10 nM against human (hACC2) (Table 2b, additional results).

For `COc1ccccc1[C@H](Cn1c(=O)n(C(C)(C)C(=O)N2CCCC2)c(=O)c2c(C)c(-n3nccn3)sc21)OC1CCOCC1` [Compound I-18, (R)-1-(2-(2-methoxyphenyl)-2-((tetrahydro-2H-pyran-4-yl)oxy)ethyl)-5-methyl-3-(2-methyl-1-oxo-1-(pyrrolidin-1-yl)propan-2-yl)-6-(2H-1,2,3-triazol-2-yl)thieno[2,3-d]pyrimidine-2,4(1H,3H)-dione], the IC90 in the assay on Rhizoctonia solani (Rs) (setting [3]) and in the assay with Rhizoctonia solani (Rs) (setting [4]) was 0.08 µg/mL (≈ 0.128 µM) throughout. Also, the IC50 against human (hACC2) (Table 2a) fell in the range of 5 to 10 nM; against human (hACC2) (Table 2b, additional results), 5 to 10 nM.

As to `COc1ccccc1[C@H](Cn1c(=O)n(C(C)(C)C(=O)NC2CCC2)c(=O)c2c(C)c(-n3nccn3)sc21)OC1CCOCC1` [Compound I-20, (R)—N-cyclobutyl-2-(1-(2-(2-methoxyphenyl)-2-((tetrahydro-2H-pyran-4-yl)oxy)ethyl)-5-methyl-2,4-dioxo-6-(2H-1,2,3-triazol-2-yl)-1,4-dihydrothieno[2,3-d]pyrimidin-3(2H)-yl)-2-methylpropanamide], the IC90 in the assay on Rhizoctonia solani (Rs) (setting [3]) and in the assay on Rhizoctonia solani (Rs) (setting [4]) was 0.08 µg/mL (≈ 0.128 µM) throughout. The half-maximal inhibitory concentration (IC50) at human (hACC2) (Table 2a) was in the range of 5 to 10 nM; against human (hACC2) (Table 2b, additional results) it was 5 to 10 nM.

Consider `COc1ccccc1[C@H](Cn1c(=O)n(C(C)(C)C(=O)NC2CCCCC2)c(=O)c2c(C)c(-n3nccn3)sc21)OC1CCOCC1` [Compound I-21, (R)—N-cyclohexyl-2-(1-(2-(2-methoxyphenyl)-2-((tetra-hydro-2H-pyran-4-yl)oxy)ethyl)-5-methyl-2,4-dioxo-6-(2H-1,2,3-triazol-2-yl)-1,4-dihydrothieno[2,3-d]pyrimidin-3(2H)-yl)-2-methylpropanamide], for which the IC90 in the assay on Rhizoctonia solani (Rs) (setting [1]) and with Rhizoctonia solani (Rs) (setting [2]) was 0.4 µg/mL (≈ 0.615 µM) each time. The IC50 lay within 5 to 10 nM against human (hACC2) (Table 2a) and 5 to 10 nM against human (hACC2) (Table 2b, additional results).

For `CCNC(=O)C(C)(C)n1c(=O)c2c(C)c(-n3nccn3)sc2n(C[C@H](OC2CCOCC2)c2cc(F)ccc2OC)c1=O` [Compound I-22, (R)—N-ethyl-2-(1-(2-(5-fluoro-2-methoxyphenyl)-2-((tetrahydro-2H-pyran-4-yl)oxy)ethyl)-5-methyl-2,4-dioxo-6-(2H-1,2,3-triazol-2-yl)-1,4-dihydrothieno[2,3-d]pyrimidin-3(2H)-yl)-2-methylpropanamide], the IC90 in the assay with Rhizoctonia solani (Rs) (setting [3]) and in the assay with Rhizoctonia solani (Rs) (setting [4]) was 0.4 µg/mL (≈ 0.651 µM) each time. Moreover, the IC50 lay in the range of 5 to 10 nM against human (hACC2) (Table 2a) and 5 to 10 nM against human (hACC2) (Table 2b, additional results).

For `COc1ccc(F)cc1[C@H](Cn1c(=O)n(C(C)(C)C(=O)NC(C)C)c(=O)c2c(C)c(-n3nccn3)sc21)OC1CCOCC1` [Compound I-23, (R)-2-(1-(2-(5-fluoro-2-methoxyphenyl)-2-((tetrahydro-2H-pyran-4-yl)oxy)ethyl)-5-methyl-2,4-dioxo-6-(2H-1,2,3-triazol-2-yl)-1,4-dihydro-thieno[2,3-d]pyrimidin-3(2H)-yl)-N-isopropyl-2-methylpropanamide], the IC90 in the assay with Rhizoctonia solani (Rs) (setting [1]) and with Rhizoctonia solani (Rs) (setting [2]) was 0.08 µg/mL (≈ 0.127 µM) in each case. The IC50 against human (hACC2) (Table 2a) lay in the range of 5 to 10 nM; at human (hACC2) (Table 2b, additional results) it was 5 to 10 nM.

With `COc1ccc(F)cc1[C@H](Cn1c(=O)n(C(C)(C)C(=O)N2CCCC2)c(=O)c2c(C)c(-n3nccn3)sc21)OC1CCOCC1` [Compound I-25], the IC90 in the assay with Rhizoctonia solani (Rs) (setting [3]) and with Rhizoctonia solani (Rs) (setting [4]) was 0.08 µg/mL (≈ 0.125 µM) throughout. For the same compound, the half-inhibitory concentration (IC50) was 5 to 10 nM on human (hACC2) (Table 2a) and 5 to 10 nM at human (hACC2) (Table 2b, additional results).

Regarding `COc1ccc(F)cc1[C@H](Cn1c(=O)n(CC(=O)N2CCCC2)c(=O)c2c(C)c(-n3nccn3)sc21)OC(C)C` [Compound I-36, (R)-1-(2-(5-fluoro-2-methoxyphenyl)-2-isopropoxyethyl)-5-methyl-3-(2-oxo-2-(pyrrolidin-1-yl)ethyl)-6-(2H-1,2,3-triazol-2-yl)thieno[2,3-d]pyrimidine-2,4(1H,3H)-dione], the IC90 with Rhizoctonia solani (Rs) (setting [3]) and in the assay on Rhizoctonia solani (Rs) (setting [4]) was 0.4 µg/mL (≈ 0.701 µM) each time. Further, the IC50 at human (hACC2) (Table 2a) is 1 to 5 nM; against human (hACC2) (Table 2b, additional results), 1 to 5 nM.

Consider `COc1ccc(F)cc1[C@H](Cn1c(=O)n([C@@H](C)C(=O)NC(C)C)c(=O)c2c(C)c(-n3nccn3)sc21)OC(C)C` [Compound I-37, (S)-2-(1-((R)-2-(5-fluoro-2-methoxyphenyl)-2-isopropoxyethyl)-5-methyl-2,4-dioxo-6-(2H-1,2,3-triazol-2-yl)-1,4-dihydrothieno[2,3-d]pyrimidin-3(2H)-yl)-N-isopropylpropanamide], for which the IC90 in the assay on Rhizoctonia solani (Rs) (setting [1]) and with Rhizoctonia solani (Rs) (setting [2]) was 0.4 µg/mL (≈ 0.698 µM) throughout. The IC50 lay in the range of 5 to 10 nM at human (hACC2) (Table 2a) and 5 to 10 nM against human (hACC2) (Table 2b, additional results).

Take `COc1ccc(F)cc1[C@H](Cn1c(=O)n([C@H](C)C(=O)NC(C)C)c(=O)c2c(C)c(-n3nccn3)sc21)OC(C)C` [Compound I-38, (R)-2-(1-((R)-2-(5-fluoro-2-methoxyphenyl)-2-isopropoxy-ethyl)-5-methyl-2,4-dioxo-6-(2H-1,2,3-triazol-2-yl)-1,4-dihydrothieno[2,3-d]pyrimidin-3(2H)-yl)-N-isopropylpropanamide]: the IC90 in the assay on Rhizoctonia solani (Rs) (setting [1]) and in the assay on Rhizoctonia solani (Rs) (setting [2]) was 0.4 µg/mL (≈ 0.698 µM) in each case. The IC50 against human (hACC2) (Table 2a) fell in the range of 5 to 10 nM; against human (hACC2) (Table 2b, additional results), 5 to 10 nM.

With `COc1ccc(F)cc1[C@H](Cn1c(=O)n([C@@H](C)C(=O)N2CCCC2)c(=O)c2c(C)c(-n3nccn3)sc21)OC(C)C` [Compound I-39, 1-((R)-2-(5-fluoro-2-methoxyphenyl)-2-isopropoxyethyl)-5-methyl-3-((S)-1-oxo-1-(pyrrolidin-1-yl)propan-2-yl)-6-(2H-1,2,3-triazol-2-yl)thieno[2,3-d]pyrimidine-2,4(1H,3H)-dione], the IC90 with Rhizoctonia solani (Rs) (setting [3]) and with Rhizoctonia solani (Rs) (setting [4]) was 0.4 µg/mL (≈ 0.684 µM) throughout. For the same compound, the half-maximal inhibitory concentration (IC50) lay in the range of 5 to 10 nM against human (hACC2) (Table 2a) and 1 to 5 nM against human (hACC2) (Table 2b, additional results).

These data come from patent US10800791B2, “Triazole ACC inhibitors and uses thereof” (Gilead Apollo, LLC, priority 2015, dated 2020).
